# Measured values published in ChEMBL document CHEMBL5331098, “Nanomolar β-glucosidase and β-galactosidase inhibition by enantiomeric α-1-C-alkyl-1,4-dideoxy-1,4-imino-arabinitol derivatives” (Eur J Med Chem, 2023).
# Experiments:
# Prunus dulcis = test: Inhibition of almond beta-glucosidase assessed as reduction of p-nitrophenol release using p-nitrophenyl glycoside as substrate at 1000 uM by spectrophotometric analysis relative to control
# [1] = molecular target: T1, Tissue alpha-L-fucosidase (Bos taurus) (UniProt Q2KIM0); test: Inhibition of bovine kidney alpha-L-fucosidase assessed as reduction of p-nitrophenol release using p-nitrophenyl glycoside as substrate at 1000 uM by spectrophotometric analysis relative to control
# T1 sequence (whole entry): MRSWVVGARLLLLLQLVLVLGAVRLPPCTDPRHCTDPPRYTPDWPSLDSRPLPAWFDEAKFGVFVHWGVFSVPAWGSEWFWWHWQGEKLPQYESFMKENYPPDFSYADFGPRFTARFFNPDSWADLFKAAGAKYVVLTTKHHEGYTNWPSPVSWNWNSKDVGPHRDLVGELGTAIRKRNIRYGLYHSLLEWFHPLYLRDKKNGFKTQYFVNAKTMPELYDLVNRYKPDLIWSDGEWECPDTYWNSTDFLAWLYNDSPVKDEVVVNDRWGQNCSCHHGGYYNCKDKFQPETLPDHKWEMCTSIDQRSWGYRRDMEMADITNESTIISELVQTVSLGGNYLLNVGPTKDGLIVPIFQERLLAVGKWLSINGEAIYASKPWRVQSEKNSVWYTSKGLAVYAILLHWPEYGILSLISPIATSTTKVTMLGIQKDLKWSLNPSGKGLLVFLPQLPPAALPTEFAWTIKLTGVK
# [2] = Inhibition of rice alpha-glucosidase assessed as reduction of p-nitrophenol release using p-nitrophenyl glycoside as substrate by spectrophotometric analysis; parameters: species or system Oryza sativa
# Aspergillus niger = test: Inhibition of Aspergillus niger amyloglucosidase assessed as reduction of p-nitrophenol release using p-nitrophenyl-glycoside as substrate at 1000 uM by spectrophotometric analysis relative to control
# [3] = Inhibition of rat intestinal maltase assessed as D-glucose release using maltose as substrate at pH 6.8 by colorimetric method
# [4] = Inhibition of bovine liver beta-galactosidase assessed as reduction of p-nitrophenol release using p-nitrophenyl glycoside as substrate by spectrophotometric analysis; parameters: species or system Bos taurus
# Helix pomatia = test: Inhibition of snail beta-mannosidase assessed as reduction of p-nitrophenol release using p-nitrophenyl glycoside as substrate at 1000 uM by spectrophotometric analysis relative to control
# Sus scrofa = organism: Sus scrofa; test: Inhibition of porcine kidney alpha/alpha-trehalase assessed as reduction of p-nitrophenol release using p-nitrophenyl glycoside as substrate at 1000 uM by spectrophotometric analysis relative to control
# [5] = molecular target: T2, Alpha-mannosidase (Canavalia ensiformis) (UniProt C0HJB3); test: Inhibition of jack bean alpha-mannosidase assessed as reduction of p-nitrophenol release using p-nitrophenyl glycoside as substrate at 1000 uM by spectrophotometric analysis relative to control
# T2 sequence (whole entry): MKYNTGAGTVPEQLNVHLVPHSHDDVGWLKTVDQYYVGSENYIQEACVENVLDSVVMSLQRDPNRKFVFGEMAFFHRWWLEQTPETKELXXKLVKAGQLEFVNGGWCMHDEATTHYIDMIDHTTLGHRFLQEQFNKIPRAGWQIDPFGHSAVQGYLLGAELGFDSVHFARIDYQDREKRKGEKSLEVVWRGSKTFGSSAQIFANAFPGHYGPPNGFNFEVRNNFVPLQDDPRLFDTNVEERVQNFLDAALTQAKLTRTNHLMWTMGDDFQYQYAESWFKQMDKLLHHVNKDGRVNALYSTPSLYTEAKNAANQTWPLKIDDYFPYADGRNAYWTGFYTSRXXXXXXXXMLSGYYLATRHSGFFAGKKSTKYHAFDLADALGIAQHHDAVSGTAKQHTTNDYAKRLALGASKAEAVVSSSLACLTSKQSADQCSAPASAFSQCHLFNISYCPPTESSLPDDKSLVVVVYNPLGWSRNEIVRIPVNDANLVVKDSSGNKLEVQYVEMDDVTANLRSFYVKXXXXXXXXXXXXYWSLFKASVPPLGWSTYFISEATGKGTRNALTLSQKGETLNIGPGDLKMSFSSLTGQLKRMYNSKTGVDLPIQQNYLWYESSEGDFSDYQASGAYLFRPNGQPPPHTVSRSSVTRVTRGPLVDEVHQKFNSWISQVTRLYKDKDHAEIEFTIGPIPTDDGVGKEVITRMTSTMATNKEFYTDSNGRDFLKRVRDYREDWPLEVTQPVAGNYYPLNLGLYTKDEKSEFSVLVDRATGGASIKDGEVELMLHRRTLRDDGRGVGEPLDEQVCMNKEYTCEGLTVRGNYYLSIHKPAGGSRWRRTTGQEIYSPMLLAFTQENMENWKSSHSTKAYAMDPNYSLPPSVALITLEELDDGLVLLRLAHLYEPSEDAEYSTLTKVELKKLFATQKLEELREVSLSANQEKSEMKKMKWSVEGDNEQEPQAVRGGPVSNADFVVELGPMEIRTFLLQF
# Bos taurus = organism: Bos taurus; test: Inhibition of bovine liver beta-glucuronidase assessed as reduction of p-nitrophenol release using p-nitrophenyl-glycoside as substrate at 1000 uM by spectrophotometric analysis relative to control
# [6] = molecular target: Alpha-glucosidase (Saccharomyces cerevisiae S288c) (UniProt P53341+P38158+P07265); test: Inhibition of yeast alpha-glucosidase assessed as reduction of p-nitrophenol release using p-nitrophenyl glycoside as substrate at 1000 uM by spectrophotometric analysis relative to control; type: protein assay
# [7] = Inhibition of human lysosomal beta-glucosidase assessed as reduction of p-nitrophenol release using p-nitrophenyl glycoside as substrate by spectrophotometric analysis
# Penicillium decumbens = test: Inhibition of Penicillium decumbens alpha-L-rhamnosidase assessed as reduction of p-nitrophenol release using p-nitrophenyl-glycoside as substrate at 1000 uM by spectrophotometric analysis relative to control
# [8] = molecular target: Beta-glucuronidase (Escherichia coli (strain K12)) (UniProt P05804); test: Inhibition of Escherichia coli beta-glucuronidase assessed as reduction of p-nitrophenol release using p-nitrophenyl-glycoside as substrate at 1000 uM by spectrophotometric analysis relative to control
# [9] = molecular target: Alpha-galactosidase (Coffea arabica) (UniProt Q42656); test: Inhibition of coffee beans alpha-galactosidase assessed as reduction of p-nitrophenol release using p-nitrophenyl glycoside as substrate at 1000 uM by spectrophotometric analysis relative to control
# [10] = Inhibition of bovine liver beta-glucosidase assessed as reduction of p-nitrophenol release using p-nitrophenyl glycoside as substrate by spectrophotometric analysis; parameters: species or system Bos taurus
# Rattus norvegicus = organism: Rattus norvegicus; test: Inhibition of rat intestinal maltase assessed as D-glucose release using maltose as substrate at pH 6.8 at 1000 uM by colorimetric method relative to control
# Oryza sativa = test: Inhibition of rice alpha-glucosidase assessed as reduction of p-nitrophenol release using p-nitrophenyl glycoside as substrate at 1000 uM by spectrophotometric analysis relative to control
# Beta-glucuronidase = Beta-glucuronidase (Escherichia coli (strain K12), UniProt P05804); test: Inhibition of Escherichia coli beta-glucuronidase assessed as reduction of p-nitrophenol release using p-nitrophenyl-glycoside as substrate by spectrophotometric analysis
# Alpha-glucosidase = Alpha-glucosidase (Saccharomyces cerevisiae S288c, UniProt P53341+P38158+P07265); test: Inhibition of yeast alpha-glucosidase assessed as reduction of p-nitrophenol release using p-nitrophenyl glycoside as substrate by spectrophotometric analysis; type: protein assay
# [11] = Inhibition of almond beta-glucosidase assessed as reduction of p-nitrophenol release using p-nitrophenyl glycoside as substrate by spectrophotometric analysis; parameters: species or system Prunus dulcis
# [12] = Inhibition of Aspergillus niger amyloglucosidase assessed as reduction of p-nitrophenol release using p-nitrophenyl-glycoside as substrate by spectrophotometric analysis
# [13] = Inhibition of snail beta-mannosidase assessed as reduction of p-nitrophenol release using p-nitrophenyl glycoside as substrate by spectrophotometric analysis; parameters: species or system Helix pomatia
# Chain of Beta-glucuronidase (Escherichia coli (strain K12)) (P05804 whole entry, looked up): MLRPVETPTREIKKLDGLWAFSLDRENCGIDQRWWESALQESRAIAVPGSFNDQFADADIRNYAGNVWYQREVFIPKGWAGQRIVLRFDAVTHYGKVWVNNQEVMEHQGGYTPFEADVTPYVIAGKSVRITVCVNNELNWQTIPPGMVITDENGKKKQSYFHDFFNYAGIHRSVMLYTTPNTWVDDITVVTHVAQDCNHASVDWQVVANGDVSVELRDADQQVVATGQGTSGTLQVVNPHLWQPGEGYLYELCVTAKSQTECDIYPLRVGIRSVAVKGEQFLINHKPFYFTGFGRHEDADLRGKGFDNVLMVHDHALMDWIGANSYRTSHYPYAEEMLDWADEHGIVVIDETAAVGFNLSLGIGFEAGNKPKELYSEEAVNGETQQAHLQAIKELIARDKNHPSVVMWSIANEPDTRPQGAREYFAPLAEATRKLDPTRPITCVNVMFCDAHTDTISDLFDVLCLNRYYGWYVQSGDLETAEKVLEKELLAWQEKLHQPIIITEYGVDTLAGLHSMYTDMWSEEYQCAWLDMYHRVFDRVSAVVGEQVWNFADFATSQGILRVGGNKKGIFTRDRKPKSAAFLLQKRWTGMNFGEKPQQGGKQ
# Chain of Beta-glucuronidase (P05804 whole entry): as the sequence (P05804 whole entry, looked up) above
# Chain of Alpha-galactosidase (Coffea arabica) (Q42656 16-378 limits assumed): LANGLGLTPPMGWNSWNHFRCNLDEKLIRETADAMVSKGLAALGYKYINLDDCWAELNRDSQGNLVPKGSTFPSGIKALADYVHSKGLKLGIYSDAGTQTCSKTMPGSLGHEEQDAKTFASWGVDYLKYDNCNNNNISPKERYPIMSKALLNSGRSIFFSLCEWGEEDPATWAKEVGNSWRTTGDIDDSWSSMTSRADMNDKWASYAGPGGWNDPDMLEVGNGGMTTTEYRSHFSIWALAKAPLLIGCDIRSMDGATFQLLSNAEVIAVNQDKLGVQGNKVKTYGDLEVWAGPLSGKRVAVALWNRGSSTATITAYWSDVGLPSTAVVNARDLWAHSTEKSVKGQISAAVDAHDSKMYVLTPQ
SMILES,inhibition [1] [%],IC50 [2] [µM],inhibition (Aspergillus niger) [%],IC50 [3] [µM],IC50 [4] [µM],inhibition (Helix pomatia) [%],inhibition (Sus scrofa) [%],inhibition [5] [%],inhibition (Bos taurus) [%],inhibition [6] [%],IC50 [7] [µM],inhibition (Penicillium decumbens) [%],inhibition [8] [%],inhibition [9] [%],IC50 [10] [µM],inhibition (Rattus norvegicus) [%],inhibition (Oryza sativa) [%],IC50 (Beta-glucuronidase) [µM],IC50 [11] [µM],IC50 [12] [µM],further results
OC[C@@H]1N[C@@H]([C@H](O)CCCCCCc2ccc(F)cc2)[C@H](O)[C@H]1O,1.5,92,0,35,11,2.9,0,4.8,0,36.2,66,2.5,14.1,1.6,37,,,,,,inhibition (Prunus dulcis): 27.4%
CC(C)(C)c1ccc(CCCCCC[C@@H](O)[C@H]2N[C@H](CO)[C@@H](O)[C@@H]2O)cc1.Cl,,,,,0.002,,2.3,8.7,4.3,,0.81,4.8,,5.5,0.004,48.7,36.6,2.9,0.064,16,IC50 (Alpha-glucosidase): 57 µM; IC50 [13]: 14 µM
Cc1ccc(CCCCCC[C@@H](O)[C@H]2N[C@H](CO)[C@@H](O)[C@@H]2O)cc1,0,,,,0.002,,0,5.9,0,23.5,1.1,7,,0.9,0.003,10.5,15,13,0.082,23,IC50 [13]: 32 µM
OC[C@@H]1N[C@@H]([C@@H](O)CCCCCCc2ccc(Cl)cc2)[C@H](O)[C@H]1O,6.3,4.3,0,0.33,3.2,0,0,0,0,10,5.9,0,6.8,3.6,8,,,,,,inhibition (Prunus dulcis): 37.1%
CC(C)(C)c1ccc(CCCCCC[C@H](O)[C@@H]2N[C@@H](CO)[C@H](O)[C@H]2O)cc1,0,0.86,7.1,0.65,3.9,0,0.9,0.8,0,9.6,32,4.2,15.5,2.6,7.7,,,,,,inhibition (Prunus dulcis): 44.7%
OC[C@@H]1N[C@@H]([C@@H](O)CCCCCCc2ccc(F)cc2)[C@H](O)[C@H]1O,0,3,11.8,0.7,0.62,1.2,0,0,0,11.8,61,1.7,6.2,3.6,1.1,,,,35,,
CC(C)(C)c1ccc(CCCCCC[C@H](O)[C@H]2N[C@H](CO)[C@@H](O)[C@@H]2O)cc1,0,,,,0.014,,0,0,0,27.6,3.2,6.2,,0.9,0.05,14.1,48.6,23,0.36,63,IC50 [13]: 96 µM

# The remaining molecules from weak to strong by IC50 [4], led by results:
inhibition [1] [%],IC50 [2] [µM],inhibition (Aspergillus niger) [%],IC50 [3] [µM],IC50 [4] [µM],inhibition (Helix pomatia) [%],inhibition (Sus scrofa) [%],inhibition [5] [%],inhibition (Bos taurus) [%],inhibition [6] [%],IC50 [7] [µM],inhibition (Penicillium decumbens) [%],inhibition [8] [%],inhibition [9] [%],IC50 [10] [µM],inhibition (Rattus norvegicus) [%],inhibition (Oryza sativa) [%],IC50 (Beta-glucuronidase) [µM],IC50 [11] [µM],IC50 [12] [µM],SMILES,further results
5.9,1.5,0,0.88,2.5,3.3,0,7.9,0,17.3,96,2.9,8.9,3.6,4.1,,,,89,,Cc1ccc(CCCCCC[C@H](O)[C@@H]2N[C@@H](CO)[C@H](O)[C@H]2O)cc1,
,,,,0.004,,1.4,16.6,4.3,,2.7,27,,17.2,0.007,42.5,43.4,21,0.53,11,Cl.OC[C@H]1N[C@H]([C@H](O)CCCCCCc2ccc(F)c(F)c2)[C@@H](O)[C@@H]1O,IC50 (Alpha-glucosidase): 87 µM; IC50 [13]: 16 µM
0.6,,,,0.003,,6,4.5,0,42.3,2.1,1.3,,0,0.005,18.2,8.9,41,0.12,32,OC[C@H]1N[C@H]([C@H](O)CCCCCCc2ccc(Cl)cc2)[C@@H](O)[C@@H]1O,IC50 [13]: 37 µM
